Data published in patent publication US11930812B2, “Coating materials for seeds and for particulate materials, including fertilizers” (ADVANCED BIOLOGICAL MARKETING, INC., priority 2017, dated 2024).

How the values were obtained:
corn [1] = assay: Corn seedling size after seed or urea fertilizer treatment with cyclodextrin/6PP; format: in vivo; details: cyclodextrin formulation; 0.2, 2 and 20 μl/seed or μl/g of urea fertilizer; plants about 15 days old; FIG. 4
Procedure: FIG. 4 illustrates corn seedling size following seed treatments at 0 (CO), 0.2, 2 and 20 μl/seed or of fertilizer with cyclodextrin/6PP at 0 (CO), 0.2, 2 and 20 μl/g of urea fertilizer. Plants were about 15 days old and bars with dissimilar letters denote statistical differences at P=0.01. The formulation systems designated here can be used with many other triggering compounds, signal molecules, or substances. In FIG. 4 is shown data on 6-pentyl pyrone (6PP) used with the same cyclodextrin formulation described above for use with 1-octen-3-ol. 6PP is effective in this use.

corn [2] = assay: Corn root development in PVC tubes in natural field soil after seed treatment; format: in vivo; details: seed treated with 0.7 μl; corn maturity, 3 months after application; PVC tubes about 4 M long; FIG. 1A
Procedure: In the roots produced in field soil in PVC pipes, adequate water was applied throughout the growing season. Conversely, in the field trial shown in FIG. 1, the plants were subject to severe drought, according to official weather service notices. In both cases, the growth of roots was much greater when produced from seeds treated with the chemical. […] Turning to FIG. 1 in detail, pictured are the development of corn roots from seeds not treated (left) or treated with 0.7 μl of 1-octen-3-ol (right) at the time of corn maturity (that is, 3 months after application of octenol). In FIG. 1A, plants were grown in PVC tubes about 4 M long in natural field soil, and the treated seeds produced roots that exceeded the control by about 50%. Length of roots are indicated in meters (M) by the scale at right.

[3] = moderate toxicity; cited from earlier work
squash = assay: Field-grown squash yield after seed treatment; format: in vivo; details: seed treatment about 0.7 μl; differences significant at P=0.01; FIG. 2C
Procedure: (§1) Turning to FIG. 2 in detail, pictured are long-term effects of 1-octen-3-ol (represented as the designation “Omega” on the chart) on yields of corn, yield increases in squash and control of powdery mildew on squash. Treatments in every case were seed treatments with about 0.7 μl of 1-octen-3-ol. […] FIGS. 2C and 2D show yield differences and disease resistance, as indicated by occurrence of powdery mildew from natural infection in field-grown squash following the same seed treatment protocol as above. The differences shown are significant at P=0.01. The yields are weights of fruit/ac. The powdery mildew disease rating is 0=no disease, 1=1 lesion/leaf, 2=2 lesions/leaf and 3=3 lesions per leaf.

corn [4] = assay: Corn field trials 2015, yields after seed treatment; format: in vivo; details: seed treatment about 0.7 μl, 2-3 months post-planting
Procedure: Turning to FIG. 2 in detail, pictured are long-term effects of 1-octen-3-ol (represented as the designation “Omega” on the chart) on yields of corn, yield increases in squash and control of powdery mildew on squash. Treatments in every case were seed treatments with about 0.7 μl of 1-octen-3-ol. […] FIGS. 2A and 2B show yields of corn in field trials, 2015.

corn [5] = assay: Field trials of seed treatment, early-season flooding stress; format: in vivo; details: seed treatment 0.7 μl/seed
powdery mildew = assay: Powdery mildew from natural infection in field-grown squash after seed treatment; format: in vivo; details: seed treatment about 0.7 μl, differences significant at P=0.01, FIG. 2D
Procedure: as §1

corn [6] = assay: Corn root length in field grown plants (back hoe trench) after seed treatment; format: in vivo; details: seed treatment 0.7 μl, severe drought, control root 30 cm, FIG. 1B
Source text: In the roots produced in field soil in PVC pipes, adequate water was applied throughout the growing season. Conversely, in the field trial shown in FIG. 1, the plants were subject to severe drought, according to official weather service notices. In both cases, the growth of roots was much greater when produced from seeds treated with the chemical. […] When grown in the field, that is, in a setting where maximum root length was not impeded by the experiment itself, a similar or better result obtained. In FIG. 1B, roots were exposed in field grown plants with a back hoe trench and photographed. The images were adjusted so that the root volume in each is proportionally sized. In the control shown the root was 30 cm long, and with the treatment the root was 78 cm long to deepest part of the root visible.

Row | SMILES | corn seedling size (corn [1]) | roots exceeding the control (corn [2]) | LD 50 [3] [mg/kg] | squash yield (weights of fruit/ac) (squash) | biomass yield of corn versus untreated (corn [4]; FIG. 2A) | grain yield of corn versus untreated (corn [4]; FIG. 2B) | resistance to flooding stress (corn [5]) | disease resistance (powdery mildew disease rating) (powdery mildew) | root length to deepest part of the root visible (corn [6]) [cm]
1 | CCCCCc1cccc(=O)o1 [6PP, 6-pentyl pyrone] | effective |  |  |  |  |  |  |  | 
2 | C=CC(O)CCCCC (stereo not drawn) [1-octen-3-ol] |  | about 50% | 340 | systemically enhanced | significantly higher yields | significantly higher yields | resistance to early-season flooding stress | systemically enhanced | 78
